Experimental data published in patent US20230265116A1, “DEGRADATION OF (EGFR) BY CONJUGATION OF EGFR INHIBITORS WITH E3 LIGASE LIGAND AND METHODS OF USE” (BEIGENE, LTD., priority 2020, published 2023).
Like-named read-outs stand apart in the source and are kept apart here.

Legend:
[1] = molecular target: T1, EGFR L858R/T790M/C797S (BaF3-LTC cells) (Homo sapiens, UniProt P00533, C797S/L858R/T790M); assay: EGFR degradation HTRF assay, BaF3-LTC cells; assay type: cell-based
T1 construct: expressed in transfected cells; host or cells: BaF3
Method in brief: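 Cells treated 16 h at 37 °C, 5% CO2 in medium with 0.2% DMSO; top final concentration 10 uM, 5-fold dilution, 8 doses. Lysates read by HTRF (665/620 nm); degradation % versus DMSO high control, DC50 from four-parameter fit, Dmax as maximal degradation.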

[2] = test system: EGFR Del19/T790M/C797S (H1975-clone #28); assay: EGFR degradation HTRF assay, H1975-clone #28 DTC cells; assay type: cell-based
Method in brief: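 H1975 clones stably overexpressing mutant EGFR, with endogenous EGFR knocked out by sgRNA and homozygosity confirmed by sequencing, were treated 16h at 37° C. with compounds in 0.2% DMSO (top final 10 uM, 5-fold, 8 doses). Lysates were read by HTRF (665/620 nm); DC50 and Dmax came from fitting % degradation versus DMSO control.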

[3] = BaF3-LTC cells; EGFR degradation, IC50 (DC50) from curve fit; read-out: DC50(nM) BaF3-LTC
[4] = BaF3-LTC cells; maximum percentage of inhibition (degradation); read-out: Dmax (%) BaF3-LTC
[5] = H1975 # 28 DTC cells; EGFR degradation, IC50 (DC50) from curve fit; read-out: DC50(nM) H1975 # 28 DTC
[6] = H1975 # 28 DTC cells; maximum percentage of inhibition (degradation)

T1 sequence (P00533 25-1210 T790M/C797S/L858R): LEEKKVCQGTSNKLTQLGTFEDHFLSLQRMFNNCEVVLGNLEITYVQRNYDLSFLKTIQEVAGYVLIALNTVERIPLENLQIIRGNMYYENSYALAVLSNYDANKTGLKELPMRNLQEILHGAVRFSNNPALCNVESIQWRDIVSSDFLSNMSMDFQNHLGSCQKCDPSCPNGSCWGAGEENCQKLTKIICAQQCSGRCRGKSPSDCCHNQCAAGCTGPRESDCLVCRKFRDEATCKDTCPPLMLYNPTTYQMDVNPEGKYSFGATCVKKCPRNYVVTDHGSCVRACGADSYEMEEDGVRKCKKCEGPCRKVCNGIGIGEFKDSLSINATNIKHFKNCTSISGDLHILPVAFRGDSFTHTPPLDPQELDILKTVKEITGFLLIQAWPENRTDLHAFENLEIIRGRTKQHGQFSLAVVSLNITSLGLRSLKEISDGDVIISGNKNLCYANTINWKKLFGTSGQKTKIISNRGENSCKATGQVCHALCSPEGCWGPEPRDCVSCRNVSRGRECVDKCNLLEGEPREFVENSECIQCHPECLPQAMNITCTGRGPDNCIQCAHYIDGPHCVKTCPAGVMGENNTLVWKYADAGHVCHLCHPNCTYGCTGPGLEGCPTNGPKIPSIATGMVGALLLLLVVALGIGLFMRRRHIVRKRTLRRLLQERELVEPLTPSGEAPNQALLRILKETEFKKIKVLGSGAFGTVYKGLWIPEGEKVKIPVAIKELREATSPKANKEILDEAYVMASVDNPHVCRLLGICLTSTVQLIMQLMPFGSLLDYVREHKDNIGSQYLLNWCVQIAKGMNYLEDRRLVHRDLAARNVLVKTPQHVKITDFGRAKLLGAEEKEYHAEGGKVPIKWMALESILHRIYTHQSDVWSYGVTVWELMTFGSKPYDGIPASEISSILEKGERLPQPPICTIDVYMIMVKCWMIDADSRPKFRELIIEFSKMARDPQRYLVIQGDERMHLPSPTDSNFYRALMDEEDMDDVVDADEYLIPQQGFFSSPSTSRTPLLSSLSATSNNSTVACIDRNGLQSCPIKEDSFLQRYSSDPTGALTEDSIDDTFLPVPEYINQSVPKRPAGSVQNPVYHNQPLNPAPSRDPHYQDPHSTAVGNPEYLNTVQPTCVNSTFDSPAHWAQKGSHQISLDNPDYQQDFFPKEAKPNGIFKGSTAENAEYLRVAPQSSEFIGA

Row | DC50 [1, 3] [nM] | Dmax [1, 4] [%] | DC50 [2, 5] [nM] | SMILES | Dmax (%) H1975 # 28 DTC [2, 6] [%] | DC50 ([1]; read-out: DC50(nM) BaF3-LTC; BaF3-LTC cells; EGFR degradation, IC50 (DC50) from curve fit) [nM] | Dmax ([1]; read-out: Dmax (%) BaF3-LTC, BaF3-LTC cells; maximum percentage of inhibition (degradation)) [%] | DC50 ([2]; read-out: DC50(nM) H1975 # 28 DTC; H1975 # 28 DTC cells; EGFR degradation, IC50 (DC50) from curve fit) [nM]
1 | 3.24 | 92.3 | 0.715 | CCOc1cc(N2CCC(N3CCN(CCc4cc5oc(=O)n(C6CCC(=O)NC6=O)c5cc4F)CC3)CC2)c(CC)cc1Nc1ncc(Br)c(Nc2ccc3c(=O)n(CC)ncc3c2P(C)(C)=O)n1 (centres unmarked) [Example 628, 3-(6-(2-(4-(1-(4-((5-bromo-4-((5-(dimethylphosphoryl)-2-ethyl-1-oxo-1,2-dihydrophthalazin-6-yl)amino)pyrimidin-2-yl)amino)-5-ethoxy-2-ethylphenyl)piperidin-4-yl)piperazin-1-yl)ethyl)-5-fluoro-2-oxobenzo[d]oxazol-3(2H)-yl)piperidine-2,6-dione] | 76.12 |  |  | 
2 | 11.2 | 92.1 | 0.91 | CCOc1cc(N2CCC(N3CCN(CCOCCc4cccc5c4oc(=O)n5C4CCC(=O)NC4=O)CC3)CC2)c(CC)cc1Nc1ncc(Br)c(Nc2ccc3nc(CC)ccc3c2P(C)(C)=O)n1 (centres unmarked) [Example 619, 3-(7-(2-(2-(4-(1-(4-((5-bromo-4-((5-(dimethylphosphoryl)-2-ethylquinolin-6-yl)amino)pyrimidin-2-yl)amino)-5-ethoxy-2-ethylphenyl)piperidin-4-yl)piperazin-1-yl)ethoxy)ethyl)-2-oxobenzod[d]oxazol-3(2H)-yl)piperidine-2,6-dione] | 62.88 |  |  | 
3 | 4.07 |  | 0.624 | COc1cc(N2CCC(N3CCN(C(=O)[C@@H]4CCN(c5cc(F)c([C@H]6CCC(=O)NC6=O)c(F)c5)C4)CC3)CC2)c(C)cc1Nc1ncc(Br)c(Nc2ccc3nc(C)c(F)cc3c2P(C)(C)=O)n1 [Example 732, (R)-3-(4-((R)-3-(4-(1-(4-((5-bromo-4-((5-(dimethylphosphoryl)-3-fluoro-2-methylquinolin-6-yl)amino)pyrimidin-2-yl)amino)-5-methoxy-2-methylphenyl)piperidin-4-yl)piperazine-1-carbonyl)pyrrolidin-1-yl)-2,6-difluorophenyl)piperidine-2,6-dione] | 86.49 |  |  | 
4 |  |  |  | CCc1ccc2c(P(C)(C)=O)c(Nc3nc(Nc4cc(CC)c(N5CCC(N6CCN(C(=O)Cc7ccc8c(c7)oc(=O)n8C7CCC(=O)NC7=O)CC6)CC5)cc4OC)ncc3Br)ccc2n1 (centres unmarked) [Example 669, 3-(6-(2-(4-(1-(4-((5-bromo-4-((5-(dimethylphosphoryl)-2-ethylquinolin-6-yl)amino)pyrimidin-2-yl)amino)-2-ethyl-5-methoxyphenyl)piperidin-4-yl)piperazin-1-yl)-2-oxoethyl)-2-oxobenzo[d]oxazol-3(2H)-yl)piperidine-2,6-dione] | 73.26 | 4.06 | 91.1 | 0.59
5 | 1.11 | 95.9 | 0.595 | CCc1cc(Nc2ncc(Br)c(Nc3ccc4nc(C)ccc4c3P(C)(C)=O)n2)c(OC)cc1N1CCC(N2CCN(CCOc3cccc4c3n(C)c(=O)n4C3CCC(=O)NC3=O)CC2)CC1 (centres unmarked) [Example 683, 3-(4-(2-(4-(1-(4-((5-bromo-4-((5-(dimethylphosphoryl)-2-methylquinolin-6-yl)amino)pyrimidin-2-yl)amino)-2-ethyl-5-methoxyphenyl)piperidin-4-yl)piperazin-1-yl)ethoxy)-3-methyl-2-oxo-2,3-dihydro-1H-benzo[d]imidazol-1-yl)piperidine-2,6-dione] | 75.35 |  |  | 
6 | 4.3 | 96.5 | 1.01 | CCc1cc(Nc2ncc(Br)c(Nc3ccc4nc(C)ccc4c3P(C)(C)=O)n2)c(OC)cc1N1CCC(N2CCN(C(=O)[C@@H]3CCN(c4cc(F)c([C@H]5CCC(=O)NC5=O)c(F)c4)C3)[C@H](CO)C2)CC1 [Example 675, (R)-3-(4-((R)-3-((S)-4-(1-(4-((5-bromo-4-((5-(dimethylphosphoryl)-2-methylquinolin-6-yl)amino)pyrimidin-2-yl)amino)-2-ethyl-5-methoxyphenyl)piperidin-4-yl)-2-(hydroxymethyl)piperazine-1-carbonyl)pyrrolidin-1-yl)-2,6-difluorophenyl)piperidine-2,6-dione] | 82.47 |  |  | 
